From patent US10987349B2, “Antitumor agent and bromodomain inhibitor” (FUJIFILM Corporation, priority 2016, dated 2021)

How the values were obtained:
[1] = system: MOLT-4; assay: Cell growth test (Cell Titer Blue) MOLT-4; assay type: cell-based; details: Homo sapiens, 72 h, MOLT-4, Acute lymphoblastic leukemia, 3 days
Description: (§1) Moreover, the compound of Example 14 was subjected to a cell growth test using various types of cell lines.
(§2) All cell lines other than the below-noticed cells were each seeded in a well plate, in which an RPMI-1640 medium supplemented with penicillin/streptomycin and FBS with a final concentration of 10% was placed. The human prostate cancer cell line VCaP (ATCC) was seeded in a well plate, in which DMEM medium supplemented with penicillin/streptomycin and FBS with a final concentration of 10% was placed. […] Thereafter, using Enspire Multimode Plate Reader (PerkinElmer), the amount of fluorescence at an excitation wavelength of 531 nm and a fluorescence wavelength of 615 nm was measured. Since the amount of fluorescence is in proportion to the concentration of a florescent product resorufin that is converted from resazurin as a redox dye by living cells, the amount of fluorescence was used as an indicator of the number of living cells. The growth inhibition percentage of the test compound in each concentration was calculated according to the following equation. Growth inhibition percentage (%)=(amount of fluorescence in test compound−added well)/(amount of fluorescence in DMSO−added well)×100 […]

[2] = system: CCRF-CEM; assay: Cell growth test (Cell Titer Blue) CCRF-CEM; assay type: cell-based; details: Homo sapiens, 72 h, Acute lymphoblastic leukemia, 3 days
Description: as §1, §2

[3] = system: c-Myc gene; assay: Expression of c-Myc gene in MV4-11 cells, RT-PCR; assay type: cell-based, human; details: MV4-11 cells, 10, 30 or 100 nmol/L, 6 hours
Description: (§3) A fluctuation in the expression of c-Myc, IL-7R and HEXIM1 genes in MV4-11 (ATCC) cells treated with the test compound was analyzed according to a reverse transcription polymerase chain reaction (RT-PCR) method.
(§4) MV4-11 cells were cultured for 6 hours in an RPMI-1640 medium supplemented with penicillin/streptomycin and FBS with a final concentration of 10%, to which the compound of Example 14 was added to a concentration of 10 nmol/L, 30 nmol/L or 100 nmol/L. On the other hand, a non-treatment group (Non-treatment) was established by culturing MV4-11 cells for 6 hours in the above-described medium, to which the compound of Example 14 was not added. Using Rneasy (registered trademark) (Qiagen), RNA was extracted from the above-described MV4-11 cells in accordance with the instruction manual included with the aforementioned device. […] Thereafter, a PCR reaction was carried out for 40 cycles (a cycle consisting of 95° C.-5 seconds and 60° C.-30 seconds.) Subsequently, the obtained reaction product was measured.
(§5) As a housekeeping gene, the expression level of GAPDH (Glyceraldehyde 3-phosphate dehydrogenase) was also evaluated. The ratio of the expression level of the mRNA of each of c-Myc, IL-7R and HEXIM1 to the expression level of GAPDH was calculated, and the expression level of each gene (relative expression level) was then quantified. […]

[4] = system: NCI-H69; assay: Cell growth test (Cell Titer Blue) NCI-H69; assay type: cell-based; details: Homo sapiens, 72 h, NCI-H69, Lung cancer, 3 days
Description: as §1, §2

[5] = system: MM.1S; assay: Cell growth test (Cell Titer Blue) MM.1S; assay type: cell-based; details: Homo sapiens, MM1.S, 72 h, Myeloma, 3 days
Description: as §1, §2

[6] = system: SU-DHL-1; assay: Cell growth test (Cell Titer Blue) SU-DHL-1; assay type: cell-based; details: Homo sapiens, 72 h, SU-DHL-1, Lymphoma, 3 days
Description: as §1, §2

[7] = system: IL-7R gene; assay: Expression of IL-7R gene in MV4-11 cells, RT-PCR; assay type: cell-based, human; details: MV4-11 cells, 10, 30 or 100 nmol/L, 6 hours
Description: as §3, §4, §5

[8] = system: HT-29; assay: Cell growth test (Cell Titer Blue) HT-29; assay type: cell-based; details: Homo sapiens, 72 h, HT-29, Colon cancer, 3 days
Description: as §1, §2

[9] = system: HEXIM1 gene; assay: Expression of HEXIM1 gene in MV4-11 cells, RT-PCR; assay type: cell-based, human; details: MV4-11 cells, 10, 30 or 100 nmol/L, 6 hours
Description: as §3, §4, §5

[10] = system: WSU-DLCL2; assay: Cell growth test (Cell Titer Blue) WSU-DLCL2; assay type: cell-based; details: Homo sapiens, WSUDLCL2, 72 h, WSU-DLCL2, Lymphoma, 3 days
Description: as §1, §2

[11] = system: MDA-MB-231; assay: Cell growth test (Cell Titer Blue) MDA-MB-231; assay type: cell-based; details: Homo sapiens, 72 h, MDA-MB-231, Breast cancer, 3 days
Description: as §1, §2

[12] = system: MOLT-3; assay: Cell growth test (Cell Titer Blue) MOLT-3; assay type: cell-based; details: Homo sapiens, 72 h, MOLT-3, Acute lymphoblastic leukemia, 3 days
Description: as §1, §2

[13] = system: KG-1A; assay: Cell growth test (Cell Titer Blue) KG-1A; assay type: cell-based; details: Homo sapiens, 72 h, Acute myeloid leukemia, 3 days
Description: as §1, §2

[14] = system: PC-3; assay: Cell growth test (Cell Titer Blue) PC-3; assay type: cell-based; details: Homo sapiens, 72 h, PC-3, Prostate cancer, 3 days
Description: as §1, §2

[15] = system: A2780; assay: Cell growth test (Cell Titer Blue) A2780; assay type: cell-based; details: Homo sapiens, 72 h, A2780, Ovarian cancer, 3 days
Description: as §1, §2

[16] = system: Daudi; assay: Cell growth test (Cell Titer Blue) Daudi; assay type: cell-based; details: Homo sapiens, 72 h, Lymphoma, 3 days
Description: as §1, §2

[17] = system: SU-DHL-4; assay: Cell growth test (Cell Titer Blue) SU-DHL-4; assay type: cell-based; details: Homo sapiens, 72 h, SU-DHL-4, Lymphoma, 3 days
Description: as §1, §2

**Q.** Which results are given for `CCn1c(=O)cc(C2CCN(C)CC2)c2cc(C(=O)N(C)c3ccc(C)cc3)ccc21` [Example 14, 1-Ethyl-N-methyl-N-(4-methylphenyl)-4-(1-methylpiperidin-4-yl)-2-oxo-1,2-dihydroquinoline-6-carboxamide]?
**A.** GI50 [1]: 57 nM; GI50 [2]: 65 nM; mRNA expression of c-Myc (GAPDH correction) [3]: decreased in a compound concentration-dependent manner; GI50 [4]: 975 nM; GI50 [5]: 84 nM; GI50 [6]: 1260 nM; mRNA expression of IL-7R (GAPDH correction) [7]: decreased in a compound concentration-dependent manner; GI50 [8]: 120 nM; mRNA expression of HEXIM1 (GAPDH correction) [9]: increased; GI50 [10]: 91 nM; GI50 [11]: 85 nM; GI50 [12]: 317 nM; GI50 [13]: 119 nM; GI50 [14]: 175 nM; GI50 [15]: 582 nM; GI50 [16]: 165 nM; GI50 [17]: 49 nM
